According to US20090054403A1, “Treatment of Post-Traumatic Stress Disorder” (priority 2007, published 2009):

What was measured:
[1] = biological target: all other receptors examined; experiment: Radioligand filtration binding (Example 19)
Method: (§1) The affinity of nepicastat was determined in the bindings assays outlined in FIG. 97. Standard radioligand filtration binding methods were used. Competition binding data were analyzed by iterative curve fitting to a four parameter logistic equation. Hill coefficients and IC50 were obtained directly. pKi (−log of Ki) of competing ligands were calculated from IC50 values using the Cheng-Prusoff equation.

[2] = biological target: alpha1 receptors; experiment: Radioligand filtration binding (Example 19)
Method: as §1

[3] = Tissue and plasma compound levels in beagle dogs, 10, 30, 60 mg/kg/day; format: in vivo
Method: Thirty-two male beagle dogs, weighing 10-12 kg, were randomly assigned to one of the following 4 treatment groups (n=8 per group): nepicastat at 0 mg/kg/day (placebo), 10 mg/kg/day (5 mg/kg b.i.d.), 30 mg/kg (15 mg/kg b.i.d.), or 60 mg/kg/day (30 mg/kg b.i.d.). Dog numbers 1-16 were assigned as dose group A and dog numbers 17-32 as dose group B. The terminal surgery for tissue harvest was performed over 2 days with 16 animals studied per day. Two or 3 days before the first compound administration each dog was weighed and skin regions overlying both cephalic, saphenous and jugular veins were shaved. Dosing consisted of oral administration of one capsule with the second given 8-10 hr later. Dogs were dosed as scheduled on days 1-3. On day 4, prior to the AM dose, 3 ml of blood were obtained from a jugular vein for determination of baseline plasma compound levels. […]
Ventricles were homogenized in 50 mM Tris-HCl, 5 mM Na2EDTA buffer (pH 7.4 at 4° C.) using a Polytron P-10 tissue disrupter (setting 10, 2×15 second bursts). […] Aquasol scintillation fluid was added to each vial and radioactivity determined by liquid scintillation counting. Saturation binding isotherms were analyzed after first converting total ligand concentrations to free ligand concentrations (total−bound=free). […]

[4] = test system: β-adrenergic receptor; experiment: Left ventricular [3H]CGP-12177 saturation binding after treatment; parameters: species or system beagle dogs; conditions: 10 mg/kg/day
Method: Ventricles were homogenized in 50 mM Tris-HCl, 5 mM Na2EDTA buffer (pH 7.4 at 4° C.) using a Polytron P-10 tissue disrupter (setting 10, 2×15 second bursts). Homogenates were centrifuged at 500×g for 10 minutes and the supernatants stored on ice. The pellets were washed by resuspension and centrifugation at 500×g and the supernatants combined. The combined supernatants were centrifuged at 48,000×g for 20 minutes. The pellets were washed by resuspension and centrifugation once in homogenizing buffer and twice in 50 mM Tris-HCl, 0.5 mM EDTA buffer (pH 7.4 at 4° C.). Membranes were stored at −70° C. until required. Saturation experiments were conducted using [^3H] CGP-12177 in buffer containing 50 mM Tris-HCl, 0.5 mM EDTA (pH 7.4 at 32° C.). Non-specific binding was defined by 10 uM isoproterenol. Total bound, non-specific bound and total count tubes were set up for eight concentrations of [^3H] […] Aquasol scintillation fluid was added to each vial and radioactivity determined by liquid scintillation counting. Saturation binding isotherms were analyzed after first converting total ligand concentrations to free ligand concentrations (total−bound=free). […] Tissue catecholamine levels were analyzed by comparing nepicastat-treated groups with the placebo (control) treated groups. […] Additionally, a linear orthogonal contrast was calculated for all three doses within the context of a one-way ANOVA. […]

[5] = test system: dopamine/norepinephrine ratio; experiment: Dose response of tissue dopamine/norepinephrine ratio 6 hours after a single oral dose; format: in vivo, Sprague-Dawley rats

With `Cl.NCc1c[nH]c(=S)n1[C@H]1CCc2c(F)cc(F)cc2C1` [nepicastat, (S)-5-Aminomethyl-1-(5,7-difluoro-1,2,3,4-tetrahydronaphth-2-yl)-2,3-dihydro-2-thioxo-1H-imidazole hydrochloride] the pKi [1] was under 6.2, the pKi [2] was 6.9-6.7 and the “dose proportionality of concentration in plasma (Day 4) and tissue and plasma (Day 5)” value ([3]; 10, 30, 60 mg/kg/day, exceptions kidney medulla, plasma day 4) was “dose-proportional”. For the same molecule, the “levels in all tissues examined relative to plasma” value ([3]; Day 5) was “higher than those in plasma”, the “β-adrenergic receptor binding, treated vs vehicle left ventricular samples” value [4] was “no difference” and the “dose with significant increase in dopamine/norepinephrine ratio, left ventricle” value [5] was 1.0 mg/kg. For the same molecule, the “dose with significant increase in dopamine/norepinephrine ratio, mesenteric artery” value [5] was 3.0 mg/kg and the “dose with significant increase in dopamine/norepinephrine ratio, cerebral cortex” value ([5]; only at this dose) was 100 mg/kg.
